Measurements published in patent publication US20150344466A1 (SUMITOMO CHEMICAL COMPANY, LIMITED, priority 2013, published 2015).

Tests used:
Format in all cases: in vivo
Culex pipiens pallens [1] = test: Larvicidal test on Culex pipiens pallens, eight days (Test Example 7); conditions: 192 h; last-instar larvae of Culex pipiens pallens; 3.5 ppm in water; eight days later; read-out: death rate
Procedure: 20 last-instar larvae of Culex pipiens pallens were released into a liquid to which 0.7 ml of the above test drug solution was added to 100 ml of ion-exchanged water (a concentration of the active ingredient of 3.5 ppm). Eight days later, the life and death of the Culex pipiens pallens was examined, and the death rate was calculated. The death rate was calculated by the following equation.
Death rate (%)=(Number of dead insects/Number of tested insects)×100

Culex pipiens pallens [2] = test: Knockdown spray test on adult Culex pipiens pallens (Test Example 4); conditions: topical, 0.25 h, active ingredient 0.1% w/v, 0.5 ml sprayed, within 15 minutes, read-out: knockdown rate of the test insects within 15 minutes
Summary of the method: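 Ten adult mosquitoes in a gauze-covered cup inside a 46×46×70 cm chamber were sprayed with 0.5 ml of test solution from 30 cm at 0.4 kg/cm^2. The cup was removed at once, and knocked-down insects were counted at 2, 5 and 15 min; knockdown rate (%) = knocked-down/tested ×100.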

Musca domestica [3] = test: Knockdown spray test on adult Musca domestica (Test Example 3); conditions: topical, 0.25 h, active ingredient 2.0% w/v, 0.5 ml sprayed, within 15 minutes, read-out: knockdown rate of the test insects within 15 minutes
Procedure: Ten adult Musca domestica (five males and five females) were released in a polyethylene cup (bottom diameter: 10.6 cm), and the cup was covered with a 16-mesh nylon gauze. The polyethylene cup was placed on the bottom of a test chamber (bottom: 46 cm×46 cm, height: 70 cm). From a height of 30 cm above the upper surface of the polyethylene cup, 0.5 ml of the test drug solution was sprayed using a spray gun (a spraying pressure of 0.9 kg/cm^2). Immediately after spraying, the cup was taken out from the test chamber, and after 2 minutes, 5 minutes and 15 minutes, the number of knocked-down insects was counted to obtain a knockdown rate. The knockdown rate was calculated by the following equation.
Knockdown Rate (%)=(Number of Knocked-down Insects/Number of Tested Insects)×100

Spodoptera litura = test: Foliar spray test on Spodoptera litura on cabbage (Test Example 11); conditions: 96 h, fourth instar larvae of Spodoptera litura on cabbage, 500 ppm spray 20 ml/cup, after 4 days, read-out: controlling value
Procedure: On the other hand, cabbage was planted in a polyethylene cup, and grown until the third-fourth true leaf was spread. The test spray solution was sprayed to the cabbage at a ratio of 20 ml/cup. After the drug solution sprayed orn the cabbage was dried, 10 fourth instar larvae of Spodoptera litura were allowed to parasitize the cabbage. After 4 days, the number of surviving Spodoptera litura on the cabbage leaves was examined, and the controlling value was calculated according to the following equation. Controlling value (%)={1−(Cb×Tai)/([…])}×100 In the equation, the symbols represent as follows. Cb: the number of insects in a non-treated section before treatment Cai: the number of insects in a non-treated section on observation Tb: the number of insects in a treated section before treatment Tai: the number of insects in a treated section on observation

Blattella germanica [4] = test: Knockdown spray test on Blattella germanica, 2.0% w/v oil formulation (Test Example 1); conditions: topical, 0.25 h, active ingredient 2.0% w/v, 1.5 ml sprayed, within 15 minutes, read-out: knockdown rate of the test insects within 15 minutes
Summary of the method: (§1)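 Ten German cockroaches (5 males, 5 females) in a mesh-bottomed, butter-walled container were sprayed with 1.5 ml test solution from 60 cm at 0.42 kg/cm^2 inside a chamber.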

Plutella xylostella = test: Foliar spray test on Plutella xylostella on cabbage (Test Example 10); conditions: 120 h, third instar larvae of Plutella xylostella on cabbage, 500 ppm spray 20 ml/cup, after five days, read-out: controlling value
Summary of the method: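 Cabbage at the third–fourth true-leaf stage sprayed with test solution at 20 ml/cup, dried, then infested with 10 third-instar larvae. Insects counted after five days; controlling value (%) calculated from treated and non-treated counts before treatment and at observation.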

Musca domestica [5] = test: Filter paper/sucrose bait death rate test on Musca domestica (Test Example 5); conditions: female imagoes of Musca domestica, 0.7 ml on filter paper, after 24 hours
Summary of the method: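 Filter paper in a 5.5 cm cup dosed with 0.7 ml test drug solution, with 30 mg sucrose as bait. Ten female adult houseflies released and cup sealed. Dead insects counted after 24 h; death rate (%) = dead/tested × 100.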

Blattella germanica [6] = test: Knockdown spray test on Blattella germanica, 0.1% w/v oil formulation (Test Example 2); conditions: topical, 0.25 h, active ingredient 0.1% w/v, 1.5 ml sprayed, within 15 minutes, read-out: knockdown rate of the test insects within 15 minutes
Summary of the method: as §1

Row | SMILES | pest or weed control at 3.5 ppm (Culex pipiens pallens [1]) [%] | pest or weed control at 0.1 % strength (Culex pipiens pallens [2]) [%] | pest or weed control at 2 % strength (Musca domestica [3]) [%] | pest or weed control at 500 ppm (Spodoptera litura) [%] | pest or weed control at 2 % strength (Blattella germanica [4]) [%] | pest or weed control at 500 ppm (Plutella xylostella) [%] | pest or weed control at 500 ppm (Musca domestica [5]) [%] | pest or weed control at 0.1 % strength (Blattella germanica [6]) [%]
1 | O=C(NCC1CCOC1)c1cc(COCc2ccc3ccccc3c2)on1 (stereo not shown) [(20), N-(tetrahydrofuran-3-ylmethyl)-5-(2-naphthylmethoxymethyl)isoxazole-3-carboxamide] | ≥ 90 | ≥ 80 | ≥ 80 | ≥ 80 | ≥ 80 | – | – | –
2 | O=C(NCC1CCOCC1)c1cc(COCc2cccc(Cl)c2)on1 [(69), N-(tetrahydropyran-4-ylmethyl)-5-(3-chlorobenzyloxymethyl)isoxazole-3-carboxamide] | – | ≥ 80 | – | ≥ 80 | – | ≥ 90 | ≥ 90 | ≥ 80
3 | O=C(NCC1CCOC1)c1cc(COCc2cccc(Br)c2)on1 (stereo not shown) [(76), N-(tetrahydrofuran-3-ylmethyl)-5-[(3-bromobenzyl)oxymethyl]isoxazole-3-carboxamide] | ≥ 90 | ≥ 80 | – | ≥ 80 | – | ≥ 90 | ≥ 90 | ≥ 80
4 | O=C(NCC1CCOCC1)c1cc(COCc2cccc(Br)c2)on1 [(77), N-(tetrahydropyran-4-ylmethyl)-5-(3-bromobenzyloxymethyl)isoxazole-3-carboxamide] | ≥ 90 | ≥ 80 | – | ≥ 80 | – | – | – | ≥ 80
5 | O=C(NCC1CCOCC1)c1cc(COCc2cccc(OC(F)(F)F)c2)on1 [(79)] | – | ≥ 80 | – | ≥ 80 | – | ≥ 90 | ≥ 90 | ≥ 80
6 | O=C(NCC1CCOC1)c1cc(COCc2cc3ccccc3s2)on1 (stereo not shown) [(112), N-(tetrahydrofuran-3-ylmethyl)-5-(benzothiophen-2-ylmethoxymethyl)isoxazole-3-carboxamide] | – | ≥ 80 | – | ≥ 80 | – | – | – | ≥ 80
7 | O=C(NCC1CCOC1)c1cc(COc2cccc(Br)c2)on1 (stereo not shown) [(196), N-(tetrahydrofuran-3-ylmethyl)-5-(3-bromophenoxymethyl)isoxazole-3-carboxamide] | – | ≥ 80 | – | ≥ 80 | – | – | – | ≥ 80
8 | O=C(NCC1CCOCC1)c1cc(COc2cccc(Br)c2)on1 [(197), N-(tetrahydropyran-4-ylmethyl)-5-(3-bromophenoxymethyl)isoxazole-3-carboxamide] | – | ≥ 80 | – | ≥ 80 | – | – | – | –
9 | O=C(NCC1CCOC1)c1cc(COc2cccc(C(F)(F)F)c2)on1 (stereo not shown) [(198), N-(tetrahydrofuran-3-ylmethyl)-5-(3-trifluoromethylphenoxymethyl)isoxazole-3-carboxamide] | ≥ 90 | ≥ 80 | – | ≥ 80 | – | – | – | ≥ 80
10 | O=C(NCC1CCOC1)c1cc(COCc2ccc3ccccc3c2F)on1 (stereo not shown) [(258), N-(tetrahydrofuran-3-ylmethyl)-5-(1-fluoro-2-naphthylmethoxymethyl)isoxazole-3-carboxamide] | ≥ 90 | ≥ 80 | – | ≥ 80 | – | ≥ 90 | – | ≥ 80
11 | O=C(NCC1CCOC1)c1cc(COCc2ccc(Cl)cc2F)on1 (stereo not shown) [(260), N-(tetrahydrofuran-3-ylmethyl)-5-(4-chloro-2-fluorobenzyloxymethyl)isoxazole-3-carboxamide] | ≥ 90 | ≥ 80 | – | ≥ 80 | – | – | ≥ 90 | ≥ 80
12 | O=C(NCC1CCOC1)c1cc(COCc2ccc(Br)c(F)c2)on1 (stereo not shown) [(272), N-(tetrahydrofuran-3-ylmethyl)-5-(4-bromo-3-fluorobenzyloxymethyl)isoxazole-3-carboxamide] | – | ≥ 80 | – | ≥ 80 | – | ≥ 90 | – | –
13 | O=C(NCC1CCOC1)c1cc(Cc2ccc(F)c(F)c2)on1 (stereo not shown) [(306), N-(tetrahydrofuran-3-ylmethyl)-5-(3,4-difluorobenzyl)isoxazole-3-carboxamide] | – | ≥ 80 | – | ≥ 80 | – | ≥ 90 | ≥ 90 | ≥ 80
14 | O=C(NCC1CCOC1)c1cc(Cc2ccc(OC(F)(F)F)cc2)on1 (stereo not shown) [(315), N-(tetrahydrofuran-3-ylmethyl)-5-(4-trifluoromethoxybenzyl) isoxazole-3-carboxamide] | ≥ 90 | ≥ 80 | – | ≥ 80 | – | – | ≥ 90 | –
15 | O=C(NCC1CCOC1)c1cc(Cc2cccc(F)c2)on1 (stereo not shown) [(318), N-(tetrahydrofuran-3-ylmethyl)-5-(3-fluorobenzyl)isoxazole-3-carboxamide] | – | ≥ 80 | – | ≥ 80 | – | ≥ 90 | – | ≥ 80
16 | O=C(NCC1CCOC1)c1cc(Cc2cccc(Cl)c2)on1 (stereo not shown) [(321), N-(tetrahydrofuran-3-ylmethyl)-5-(3-chlorobenzyl)isoxazole-3-carboxamide] | – | ≥ 80 | – | ≥ 80 | – | – | ≥ 90 | ≥ 80
17 | O=C(NCC1CCOC1)c1cc(Cc2ccc(Cl)c(Cl)c2)on1 (stereo not shown) [(325), N-(tetrahydrofuran-3-ylmethyl)-5-(3,4-dichlorobenzyl)isoxazole-3-carboxamide] | – | ≥ 80 | – | ≥ 80 | – | – | ≥ 90 | ≥ 80
18 | CC1(CNC(=O)c2cc(CCCc3ccc4ccccc4c3)on2)COC1 [(332), N-(3-methyloxetan-3-ylmethyl)-5-[3-(2-naphthyl)propyl]isoxazole-3-carboxamide] | ≥ 90 | ≥ 80 | ≥ 80 | – | ≥ 80 | – | – | ≥ 80
